Results from ChEMBL document CHEMBL1146950, “Matrix compare analysis discriminates subtle structural differences in a family of novel antiproliferative agents, diaryl-3-hydroxy-2,3,3a,10a-tetrahydrobenzo[b]cycylopenta[e]azepine-4,10(1H,5H)-diones” (2006).

How the values were obtained:
HOP-62 = assay: Antiproliferative activity against HOP62 cell line; type: functional, Homo sapiens; design: unit not given here
NCI-H460 = assay: Antiproliferative activity against NCI-H460 cell line; type: functional, Homo sapiens
[1] = molecular target: Epidermal growth factor receptor (Homo sapiens) (UniProt P00533); assay: Inhibition of EGFR at 10 uM in presence of 0.1 uM ATP
Chain of Epidermal growth factor receptor (Homo sapiens) (P00533 whole entry): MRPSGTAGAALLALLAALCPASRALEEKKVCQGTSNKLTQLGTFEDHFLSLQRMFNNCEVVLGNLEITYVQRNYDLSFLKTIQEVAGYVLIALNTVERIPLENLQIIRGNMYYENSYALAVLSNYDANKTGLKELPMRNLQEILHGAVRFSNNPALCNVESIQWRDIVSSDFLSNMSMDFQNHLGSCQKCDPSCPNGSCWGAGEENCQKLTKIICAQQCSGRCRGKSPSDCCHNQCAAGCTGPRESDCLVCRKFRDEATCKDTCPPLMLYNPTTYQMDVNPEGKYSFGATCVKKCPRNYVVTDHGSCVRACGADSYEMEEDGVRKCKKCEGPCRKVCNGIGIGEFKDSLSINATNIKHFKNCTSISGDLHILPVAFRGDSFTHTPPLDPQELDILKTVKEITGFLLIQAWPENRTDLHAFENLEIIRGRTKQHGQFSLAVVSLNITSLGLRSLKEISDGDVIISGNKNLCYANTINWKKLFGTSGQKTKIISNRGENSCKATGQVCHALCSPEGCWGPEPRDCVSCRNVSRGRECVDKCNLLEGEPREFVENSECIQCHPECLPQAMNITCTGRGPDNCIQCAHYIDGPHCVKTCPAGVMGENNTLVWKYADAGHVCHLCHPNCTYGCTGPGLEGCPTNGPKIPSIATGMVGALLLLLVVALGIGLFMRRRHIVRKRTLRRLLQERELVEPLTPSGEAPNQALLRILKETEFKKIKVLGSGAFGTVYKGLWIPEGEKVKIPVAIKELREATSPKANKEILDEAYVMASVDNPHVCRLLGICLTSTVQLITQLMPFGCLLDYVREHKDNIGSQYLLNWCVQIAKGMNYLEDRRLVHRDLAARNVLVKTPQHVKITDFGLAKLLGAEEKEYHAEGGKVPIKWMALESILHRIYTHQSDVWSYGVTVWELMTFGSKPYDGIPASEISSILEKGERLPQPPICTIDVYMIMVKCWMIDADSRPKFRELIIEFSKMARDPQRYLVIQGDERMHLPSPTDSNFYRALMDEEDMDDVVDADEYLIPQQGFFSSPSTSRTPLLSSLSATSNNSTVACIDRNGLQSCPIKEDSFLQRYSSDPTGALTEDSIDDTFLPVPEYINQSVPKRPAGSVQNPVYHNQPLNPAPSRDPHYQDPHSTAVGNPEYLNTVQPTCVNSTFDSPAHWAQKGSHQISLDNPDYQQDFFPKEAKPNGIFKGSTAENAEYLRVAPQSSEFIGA

[2] = molecular target: Receptor tyrosine-protein kinase erbB-2 (Homo sapiens) (UniProt P04626); assay: Inhibition of ErbB2 at 10 uM in presence of 0.1 uM ATP
[3] = molecular target: Insulin-like growth factor 1 receptor (Homo sapiens) (UniProt P08069); assay: Inhibition of IGF1R at 10 uM in presence of 0.1 uM ATP
[4] = molecular target: Vascular endothelial growth factor receptor 1 (Homo sapiens) (UniProt P17948); assay: Inhibition of VEGFR1 at 10 uM in presence of 0.1 uM ATP
Chain of Vascular endothelial growth factor receptor 1 (Homo sapiens) (P17948 whole entry): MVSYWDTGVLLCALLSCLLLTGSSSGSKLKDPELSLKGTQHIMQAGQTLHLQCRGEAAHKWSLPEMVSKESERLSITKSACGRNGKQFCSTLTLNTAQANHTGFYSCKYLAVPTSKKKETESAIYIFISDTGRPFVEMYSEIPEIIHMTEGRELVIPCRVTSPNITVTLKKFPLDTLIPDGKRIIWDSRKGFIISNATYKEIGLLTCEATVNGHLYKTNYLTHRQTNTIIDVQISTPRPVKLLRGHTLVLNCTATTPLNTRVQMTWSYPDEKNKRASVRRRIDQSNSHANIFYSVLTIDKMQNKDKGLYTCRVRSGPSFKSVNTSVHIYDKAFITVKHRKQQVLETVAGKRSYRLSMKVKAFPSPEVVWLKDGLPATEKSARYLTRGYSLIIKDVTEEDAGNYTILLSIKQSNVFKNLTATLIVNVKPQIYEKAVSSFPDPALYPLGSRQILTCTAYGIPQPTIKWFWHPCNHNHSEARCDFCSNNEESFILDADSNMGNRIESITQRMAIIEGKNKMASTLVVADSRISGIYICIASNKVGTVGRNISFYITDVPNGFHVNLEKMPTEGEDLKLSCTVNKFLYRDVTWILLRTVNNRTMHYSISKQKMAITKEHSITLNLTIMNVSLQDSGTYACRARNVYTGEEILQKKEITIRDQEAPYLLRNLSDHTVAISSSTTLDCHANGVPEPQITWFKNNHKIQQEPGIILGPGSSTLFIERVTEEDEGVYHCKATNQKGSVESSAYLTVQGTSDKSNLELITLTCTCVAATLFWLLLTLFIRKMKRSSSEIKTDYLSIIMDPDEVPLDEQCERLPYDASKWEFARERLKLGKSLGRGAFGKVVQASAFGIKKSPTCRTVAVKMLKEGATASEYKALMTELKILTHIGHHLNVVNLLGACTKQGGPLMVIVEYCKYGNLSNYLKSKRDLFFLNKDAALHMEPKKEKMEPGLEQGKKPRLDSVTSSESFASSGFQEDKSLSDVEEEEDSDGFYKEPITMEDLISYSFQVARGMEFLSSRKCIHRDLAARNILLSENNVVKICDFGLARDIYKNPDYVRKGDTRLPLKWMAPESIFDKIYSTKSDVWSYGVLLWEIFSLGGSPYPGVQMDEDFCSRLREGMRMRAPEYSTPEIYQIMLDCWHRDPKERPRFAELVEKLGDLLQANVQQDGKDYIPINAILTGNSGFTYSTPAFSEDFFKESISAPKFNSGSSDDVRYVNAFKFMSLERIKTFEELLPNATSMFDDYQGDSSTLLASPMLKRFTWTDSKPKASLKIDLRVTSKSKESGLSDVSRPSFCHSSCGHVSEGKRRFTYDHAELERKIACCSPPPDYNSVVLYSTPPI

[5] = molecular target: Vascular endothelial growth factor receptor 2 (Homo sapiens) (UniProt P35968); assay: Inhibition of VEGFR2 at 10 uM in presence of 0.1 uM ATP
Chain of Vascular endothelial growth factor receptor 2 (Homo sapiens) (P35968 whole entry): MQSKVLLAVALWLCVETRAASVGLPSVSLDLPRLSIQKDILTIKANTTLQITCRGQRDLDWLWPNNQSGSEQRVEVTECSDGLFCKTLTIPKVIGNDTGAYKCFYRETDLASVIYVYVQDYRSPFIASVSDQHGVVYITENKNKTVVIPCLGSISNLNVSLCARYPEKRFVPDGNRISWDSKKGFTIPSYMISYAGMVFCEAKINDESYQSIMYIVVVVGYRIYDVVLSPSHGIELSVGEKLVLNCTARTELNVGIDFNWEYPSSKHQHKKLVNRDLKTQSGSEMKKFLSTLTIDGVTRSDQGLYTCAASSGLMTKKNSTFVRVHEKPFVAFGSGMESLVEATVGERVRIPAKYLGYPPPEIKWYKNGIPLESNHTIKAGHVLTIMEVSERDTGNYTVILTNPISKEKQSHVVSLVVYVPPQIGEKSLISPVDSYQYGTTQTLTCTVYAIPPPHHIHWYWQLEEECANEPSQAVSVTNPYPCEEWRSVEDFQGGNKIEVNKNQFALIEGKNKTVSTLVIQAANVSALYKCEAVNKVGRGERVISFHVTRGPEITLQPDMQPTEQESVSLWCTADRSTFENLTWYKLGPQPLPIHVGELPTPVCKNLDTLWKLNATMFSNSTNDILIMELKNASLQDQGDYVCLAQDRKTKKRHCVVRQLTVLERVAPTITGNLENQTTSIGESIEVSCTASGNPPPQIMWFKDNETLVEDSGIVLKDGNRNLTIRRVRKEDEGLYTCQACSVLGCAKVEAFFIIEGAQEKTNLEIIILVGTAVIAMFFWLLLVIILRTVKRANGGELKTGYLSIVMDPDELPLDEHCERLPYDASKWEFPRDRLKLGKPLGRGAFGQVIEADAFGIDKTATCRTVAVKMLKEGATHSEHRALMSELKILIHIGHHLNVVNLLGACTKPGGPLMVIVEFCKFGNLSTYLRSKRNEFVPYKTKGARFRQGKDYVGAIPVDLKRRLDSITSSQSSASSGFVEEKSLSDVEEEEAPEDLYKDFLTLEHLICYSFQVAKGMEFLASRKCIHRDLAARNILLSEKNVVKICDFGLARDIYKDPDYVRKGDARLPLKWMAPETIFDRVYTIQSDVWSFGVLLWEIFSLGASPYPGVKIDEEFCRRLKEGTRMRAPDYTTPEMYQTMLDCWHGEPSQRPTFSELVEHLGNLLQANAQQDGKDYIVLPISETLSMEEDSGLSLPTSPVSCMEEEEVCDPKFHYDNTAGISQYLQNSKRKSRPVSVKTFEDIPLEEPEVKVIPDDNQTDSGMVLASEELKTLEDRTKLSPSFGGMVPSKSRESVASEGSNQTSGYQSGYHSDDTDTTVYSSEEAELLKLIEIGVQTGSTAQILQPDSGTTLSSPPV

[6] = molecular target: Angiopoietin-1 receptor (Homo sapiens) (UniProt Q02763); assay: Inhibition of TIE2 at 10 uM in presence of 0.1 uM ATP
Chain of Angiopoietin-1 receptor (Homo sapiens) (Q02763 whole entry): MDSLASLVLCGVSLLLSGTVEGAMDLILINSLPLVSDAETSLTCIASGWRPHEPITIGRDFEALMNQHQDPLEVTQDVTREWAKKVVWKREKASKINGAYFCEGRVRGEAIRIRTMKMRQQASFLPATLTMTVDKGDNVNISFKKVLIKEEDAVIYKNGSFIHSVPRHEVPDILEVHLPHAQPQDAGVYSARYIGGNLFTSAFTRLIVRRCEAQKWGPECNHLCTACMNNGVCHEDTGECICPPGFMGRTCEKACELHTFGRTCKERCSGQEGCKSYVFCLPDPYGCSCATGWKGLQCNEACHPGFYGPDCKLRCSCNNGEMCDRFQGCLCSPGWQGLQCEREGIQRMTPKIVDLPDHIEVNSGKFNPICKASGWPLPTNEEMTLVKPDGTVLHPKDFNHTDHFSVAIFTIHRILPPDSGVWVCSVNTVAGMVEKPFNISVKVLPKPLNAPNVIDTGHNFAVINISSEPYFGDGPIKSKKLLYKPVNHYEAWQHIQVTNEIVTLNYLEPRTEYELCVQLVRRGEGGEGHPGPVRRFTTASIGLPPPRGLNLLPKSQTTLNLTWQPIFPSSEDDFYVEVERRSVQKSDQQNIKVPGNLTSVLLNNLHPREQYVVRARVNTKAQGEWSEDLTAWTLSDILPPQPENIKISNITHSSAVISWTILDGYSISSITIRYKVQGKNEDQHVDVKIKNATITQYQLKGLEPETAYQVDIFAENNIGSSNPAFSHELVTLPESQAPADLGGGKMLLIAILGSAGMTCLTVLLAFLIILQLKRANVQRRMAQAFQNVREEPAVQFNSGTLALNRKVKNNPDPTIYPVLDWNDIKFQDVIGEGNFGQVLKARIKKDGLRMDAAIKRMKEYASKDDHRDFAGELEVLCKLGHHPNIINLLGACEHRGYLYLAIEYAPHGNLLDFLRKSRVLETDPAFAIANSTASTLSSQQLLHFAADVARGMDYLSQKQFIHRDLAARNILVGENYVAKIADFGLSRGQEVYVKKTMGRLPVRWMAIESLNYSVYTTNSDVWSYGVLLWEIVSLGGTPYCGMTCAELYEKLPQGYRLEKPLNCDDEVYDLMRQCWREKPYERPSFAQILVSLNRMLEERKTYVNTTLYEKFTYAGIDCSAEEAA

[7] = molecular target: T1, Ephrin type-B receptor 4 (Homo sapiens) (UniProt P54760); assay: Inhibition of EPHB4 at 10 uM in presence of 0.1 uM ATP
T1 sequence (whole entry): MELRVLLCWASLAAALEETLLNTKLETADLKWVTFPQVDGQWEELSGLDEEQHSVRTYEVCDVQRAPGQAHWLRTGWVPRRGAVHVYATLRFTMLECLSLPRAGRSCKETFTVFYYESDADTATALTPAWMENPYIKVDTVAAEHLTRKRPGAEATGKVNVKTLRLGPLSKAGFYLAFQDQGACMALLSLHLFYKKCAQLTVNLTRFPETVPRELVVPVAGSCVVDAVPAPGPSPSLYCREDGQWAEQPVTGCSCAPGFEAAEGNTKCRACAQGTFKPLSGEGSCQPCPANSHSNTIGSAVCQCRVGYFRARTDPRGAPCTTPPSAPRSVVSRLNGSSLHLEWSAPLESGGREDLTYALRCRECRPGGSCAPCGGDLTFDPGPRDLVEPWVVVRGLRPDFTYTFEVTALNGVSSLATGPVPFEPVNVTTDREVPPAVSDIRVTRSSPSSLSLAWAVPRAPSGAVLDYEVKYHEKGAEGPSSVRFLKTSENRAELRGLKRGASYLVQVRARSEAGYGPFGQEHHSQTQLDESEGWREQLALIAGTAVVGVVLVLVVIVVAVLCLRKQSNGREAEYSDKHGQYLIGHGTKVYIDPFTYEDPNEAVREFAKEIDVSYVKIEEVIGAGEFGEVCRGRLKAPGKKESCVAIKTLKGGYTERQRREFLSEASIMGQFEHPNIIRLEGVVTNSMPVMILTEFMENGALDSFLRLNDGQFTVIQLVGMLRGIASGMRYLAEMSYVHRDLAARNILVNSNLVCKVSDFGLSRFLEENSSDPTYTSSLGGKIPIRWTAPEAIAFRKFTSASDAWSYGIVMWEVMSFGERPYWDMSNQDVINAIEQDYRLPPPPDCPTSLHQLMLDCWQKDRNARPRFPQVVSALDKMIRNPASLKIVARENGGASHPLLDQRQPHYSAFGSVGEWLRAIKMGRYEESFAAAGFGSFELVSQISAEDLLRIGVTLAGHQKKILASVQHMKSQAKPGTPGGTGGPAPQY

SMILES | pGI50 (NCI-H460) [M] | pGI50 (HOP-62) | further results
O=C1c2ccccc2NC(=O)[C@H]2[C@H]1[C@@H](c1ccccc1)C[C@]2(O)c1cccc(Cl)c1 | 5.7 | >4 | 
COc1ccc([C@H]2C[C@](O)(c3ccccc3)[C@H]3C(=O)Nc4ccccc4C(=O)[C@H]23)cc1 | 5.1 | >4 | 
O=C1c2ccccc2NC(=O)[C@H]2[C@H]1[C@@H](c1ccc(Cl)cc1)C[C@]2(O)c1ccccc1 | 5 | >4 | 
O=C1c2ccccc2NC(=O)[C@H]2[C@H]1C[C@@H](c1ccccc1)[C@]2(O)c1ccccc1 | 5.4 | 5.4 | 
O=C1c2ccccc2NC(=O)[C@H]2[C@H]1[C@@H](c1ccccc1)C[C@]2(O)c1ccc2ccccc2c1 | 6.7 | >4 | 
COc1ccc([C@H]2C[C@](O)(c3cccc(Cl)c3)[C@H]3C(=O)Nc4ccccc4C(=O)[C@H]23)cc1 | 5 | >4 | 
O=C1c2ccccc2NC(=O)[C@H]2[C@H]1[C@@H](c1ccccc1)C[C@]2(O)c1ccc2c(c1)OCO2 | 5.6 | 4.1 | 
O=C1c2ccccc2NC(=O)[C@H]2[C@H]1[C@@H](c1cccc(Cl)c1)C[C@]2(O)c1ccccc1 | 5.2 | >4 | inhibition [1]: > 50%; inhibition [2]: > 50%; inhibition [3]: > 50%; inhibition [4]: > 50%; inhibition [5]: > 50%; inhibition [6]: > 50%; inhibition [7]: > 50%
Cc1ccc([C@@H]2C[C@H]3C(=O)c4ccccc4NC(=O)[C@@H]3[C@@]2(O)c2ccc(C)cc2)cc1 | 5.4 | 5.2 | 

Second part, led by results:

pGI50 (NCI-H460) [M] | SMILES | pGI50 (HOP-62) | further results
5.1 | Cc1ccc([C@@H]2C[C@H]3C(=O)c4ccccc4NC(=O)[C@@H]3[C@@]2(O)c2ccccc2)cc1 | 5.6 | 
4.6 | O=C1c2ccccc2NC(=O)[C@H]2[C@H]1C[C@@H](c1cccc(Cl)c1)[C@]2(O)c1ccccc1 | 5.1 | 
5.4 | O=C1c2ccccc2NC(=O)[C@H]2[C@H]1C[C@@H](c1ccc(Cl)cc1)[C@]2(O)c1ccccc1 | 5.6 | 
4.9 | COc1ccc([C@@H]2C[C@H]3C(=O)c4ccccc4NC(=O)[C@@H]3[C@@]2(O)c2ccccc2)cc1 | 5.6 | 
4.7 | Cc1ccc([C@@]2(O)[C@H](c3ccccc3)C[C@H]3C(=O)c4ccccc4NC(=O)[C@@H]32)cc1 | 5.4 | 
5.7 | Cc1ccc([C@@]2(O)[C@H](c3ccc(Cl)cc3)C[C@H]3C(=O)c4ccccc4NC(=O)[C@@H]32)cc1 | 5.3 | 
